Data reported in US20090069320A1, “Substituted 4-Amino-Quinazoline Compounds with Metabotropic Glutamate Receptor Regulating Activity and Uses Thereof” (Gruenenthal GmbH, priority 2006, published 2009).
Counter-ions that a name gives are not always drawn.

Molecular target: T1, mGluR5 receptor (Sus scrofa, UniProt I3LUI7)
T1 construct: 450 μg of protein from brain homogenate with 5 nM ^3[H]-MPEP; from tissue; host or cells: pig brain halves without medulla, cerebellum and pons
Experiment: [3H]-MPEP mGluR5 receptor binding assay (pig brain homogenate)
Conditions: 5 nM [3H]-MPEP, read-out: IC50 mGluR5 Receptor (pig) [^3H]-MPEP Bond
Summary of the method: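 Compounds at 10 μM competed with 5 nM [3H]-MPEP for binding to pig brain membranes (450 μg protein) for 60 min at room temperature in pH 8.0 Hepes buffer. Bound radioactivity was collected on glass-fibre filters and read by β-counting, with 10 μM unlabelled MPEP giving non-specific binding.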

T1 sequence (I3LUI7 19-1212): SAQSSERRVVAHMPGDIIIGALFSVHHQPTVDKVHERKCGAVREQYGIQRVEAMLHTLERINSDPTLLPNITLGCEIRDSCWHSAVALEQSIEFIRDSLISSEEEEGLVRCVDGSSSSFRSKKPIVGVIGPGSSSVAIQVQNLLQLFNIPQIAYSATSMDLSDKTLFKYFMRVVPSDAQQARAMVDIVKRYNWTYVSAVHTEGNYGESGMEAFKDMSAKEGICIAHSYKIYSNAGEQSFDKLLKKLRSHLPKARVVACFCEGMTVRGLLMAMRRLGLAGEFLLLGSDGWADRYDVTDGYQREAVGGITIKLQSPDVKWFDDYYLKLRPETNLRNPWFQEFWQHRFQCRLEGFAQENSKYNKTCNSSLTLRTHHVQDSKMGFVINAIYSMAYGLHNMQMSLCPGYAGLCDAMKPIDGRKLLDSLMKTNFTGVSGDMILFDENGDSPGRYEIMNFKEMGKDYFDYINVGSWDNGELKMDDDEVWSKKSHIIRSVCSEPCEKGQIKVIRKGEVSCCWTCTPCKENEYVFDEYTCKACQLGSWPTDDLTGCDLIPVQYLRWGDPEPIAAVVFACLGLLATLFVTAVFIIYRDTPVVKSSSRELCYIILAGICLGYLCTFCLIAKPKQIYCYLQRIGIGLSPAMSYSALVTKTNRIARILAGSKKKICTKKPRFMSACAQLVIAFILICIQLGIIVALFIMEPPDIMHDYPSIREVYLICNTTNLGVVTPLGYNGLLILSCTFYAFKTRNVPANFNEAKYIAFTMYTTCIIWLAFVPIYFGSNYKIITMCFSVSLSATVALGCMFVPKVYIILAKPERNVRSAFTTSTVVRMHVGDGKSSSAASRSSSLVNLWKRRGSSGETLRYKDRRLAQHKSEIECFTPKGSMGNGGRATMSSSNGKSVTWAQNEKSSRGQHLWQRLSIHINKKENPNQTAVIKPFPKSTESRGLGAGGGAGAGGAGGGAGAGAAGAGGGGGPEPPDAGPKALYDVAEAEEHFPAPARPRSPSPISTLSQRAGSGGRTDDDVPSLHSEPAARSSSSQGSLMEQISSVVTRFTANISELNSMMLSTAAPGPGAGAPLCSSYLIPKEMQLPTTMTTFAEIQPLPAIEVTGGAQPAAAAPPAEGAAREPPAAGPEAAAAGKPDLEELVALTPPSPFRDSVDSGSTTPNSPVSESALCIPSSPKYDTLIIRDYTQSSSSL

Row | IC50 [µM] | Compound
1 | 0.02 | CC(=O)N(Cc1cc(F)cc(-c2ccc3ncnc(NC4CC4)c3c2)c1)C1CC1 [Example 897, N-cyclopropyl-N-(3-(4-(cyclopropylamino)quinazolin-6-yl)-5-fluorobenzyl)acetamide]
2 | 0.39 | CCCCNc1ncnc2ccc(-c3cccc(CN4C(=O)CCC4=O)c3)cc12 [Example 286, 1-(3-(4-(butylamino)quinazolin-6-yl)benzyl)pyrrolidine-2,5-dione hydrochloride]
3 | 0.22 | CS(=O)(=O)N(Cc1cccc(-c2cc(F)c3ncnc(NC4CC4)c3c2)c1)C1CC1 [Example 678, N-cyclopropyl-N-(3-(4-(cyclopropylamino)-8-fluoroquinazolin-6-yl)benzyl)methane sulfonamide]
4 | 0.22 | O=C(c1ccccc1)N(Cc1c(F)ccc(-c2ccc3ncnc(NC4CC4)c3c2)c1F)C1CC1 [Example 244, N-cyclopropyl-N-[3-(4-cyclopropylamino-quinazolin-6-yl)-2,6-difluoro-benzyl]-benzamide]
5 | 1.27 | CC(C)(C)C(=O)N(Cc1cccc(-c2ccc3ncnc(NC4CC4)c3c2)c1)C1CC1 [Example 266, N-cyclopropyl-N-(3-(4-(cyclopropylamino)quinazolin-6-yl)benzyl)pivalamide]
6 | 5.6 | CN(Cc1cccc(-c2ccc3ncnc(NC4CC4)c3c2)c1)C1CC1 [Example 891, N-cyclopropyl-6-(3-((cyclopropyl(methyl)amino)methyl)phenyl)quinazoline-4-amine]

Same assay, conditions: 10 μM compound, 5 nM [3H]-MPEP

Row | % Inhibition of mGluR5 Receptor (pig) [^3H]-MPEP Bond at 10 μM [%] | Compound
7 | 86 | O=C(c1ccncc1)N(Cc1cc(-c2ccc3ncnc(NC4CC4)c3c2)ccc1Cl)C1CC1 [Example 763, N-(2-chloro-5-(4-(cyclopropylamino)quinazolin-6-yl)benzyl)-N-cyclopropyl isonicotinamide]
8 | 100 | CC(C)(C)C(=O)N(Cc1cc(-c2ccc3ncnc(NC4CC4)c3c2)ccc1Cl)C1CC1 [Example 785, N-(2-chloro-5-(4-(cyclopropylamino)quinazolin-6-yl)benzyl)-N-cyclopropyl pivalamide]
9 | 45 | O=S(=O)(c1c(F)c(F)c(F)c(F)c1F)N(Cc1cccc(-c2cc(F)c3ncnc(NC4CC4)c3c2)c1)C1CC1 [Example 761, N-cyclopropyl-N-(3-(4-(cyclopropylamino)-8-fluoroquinazolin-6-yl)benzyl)-2,3,4,5,6-pentafluorobenzole sulfonamide]
10 | 40 | Cc1cc2ncnc(NC3CC3)c2cc1-c1cccc(CN(C2CC2)S(=O)(=O)c2ccc(Cl)cc2Cl)c1 [Example 667, 2,4-dichloro-N-cyclopropyl-N-(3-(4-(cyclopropylamino)-7-methylquinazolin-6-yl)benzyl)benzole sulfonamide]

Row | Compound | % Inhibition of mGluR5 Receptor (pig) [^3H]-MPEP Bond at 10 μM [%]
11 | CC(C)(C)Nc1ncnc2ccc(-c3ccc(F)c(CN(C4CC4)S(C)(=O)=O)c3)cc12 [Example 827, N-(5-(4-(tert-butylamino)quinazolin-6-yl)-2-fluorobenzyl)-N-cyclopropyl methane sulfonamide] | 87

Same assay, conditions: 10 μM compound, 5 nM [3H]-MPEP, read-out: % Inhibition of mGluR5 Receptor (pig) [^3H]-MPEP Bond at 10 μM

Row | inhibition at 10 µM [%] | Compound
12 | 33 | O=C1c2ccccc2C(=O)N1Cc1cccc(-c2ccc3ncnc(NC4CC4)c3c2)c1 [Example 241, 2-[3-(4-cyclopropylamino-quinazolin-6-yl)-benzyl]-isoindole-1,3-dione; hydrochloride]
13 | 69 | O=C(CCc1ccccc1)N(Cc1cc(-c2ccc3ncnc(NC4CC4)c3c2)ccc1Cl)C1CC1 [Example 756, N-(2-chloro-5-(4-(cyclopropylamino)quinazolin-6-yl)benzyl)-N-cyclopropyl-3-phenylpropanamide]
14 | 99 | O=C(c1ccccc1Cl)N(Cc1cccc(-c2ccc3ncnc(NC4CC4)c3c2)c1)C1CC1 [Example 172, 2-chloro-N-cyclopropyl-N-[3-(4-cyclopropylamino-quinazolin-6-yl)-benzyl]-benzamide]
15 | 95 | c1cc(CN2CCc3ccccc32)cc(-c2ccc3ncnc(NC4CC4)c3c2)c1 [Example 292, N-cyclopropyl-6-(3-(indolin-1-ylmethyl)phenyl)quinazoline-4-amine]
16 | 40 | CCCC(=O)N(Cc1ccccc1)Cc1cccc(-c2ccc3ncnc(NC(C)C)c3c2)c1 [Example 148, N-benzyl-N-[3-(4-isopropylamino-quinazolin-6-yl)-benzyl]-butyramide]
17 | 86 | CC(C)(C)C(=O)N(Cc1cccc(-c2cc(F)c3ncnc(NC4CC4)c3c2)c1)C1CC1 [Example 724, N-cyclopropyl-N-(3-(4-(cyclopropylamino)-8-fluoroquinazolin-6-yl)benzyl)pivalamide]
18 | 73 | CS(=O)(=O)N(Cc1cccc(-c2ccc3ncnc(NCCc4ccccc4)c3c2)c1)C1CC1 [Example 440, N-cyclopropyl-N-(3-(4-(phenethylamino)quinazolin-6-yl)benzyl)methane sulfonamide]
19 | 90 | O=C(c1ccc(F)cc1F)N(Cc1cc(-c2ccc3ncnc(NC4CC4)c3c2)ccc1F)C1CC1 [Example 381, N-cyclopropyl-N-(5-(4-(cyclopropylamino)quinazolin-6-yl)-2-fluorobenzyl)-2,4-difluorobenzamide]
20 | 37 | CC(C)Nc1ncnc2ccc(-c3cccc(CN(Cc4ccccc4)C(=O)c4ccc(C#N)cc4)c3)cc12 [Example 44, N-benzyl-4-cyano-N-[3-(4-isopropylamino-quinazolin-6-yl)-benzyl]-benzamide]
21 | 72 | COc1ccc(C(=O)N(Cc2cccc(-c3cc4c(NC5CC5)ncnc4cc3C)c2)C2CC2)cc1OC [Example 722, N-cyclopropyl-N-(3-(4-(cyclopropylamino)-7-methylquinazolin-6-yl)benzyl)-3,4-dimethoxybenzamide]
22 | 42 | COc1ccc(C(=O)N(Cc2cc(-c3ccc4nc(C)nc(NC5CC5)c4c3)ccc2F)C2CC2)cc1OC [Example 558, N-cyclopropyl-N-(5-(4-(cyclopropylamino)-2-methylquinazolin-6-yl)-2-fluorobenzyl)-3,4-dimethoxybenzamide]
23 | 31 | Cc1nc(NC2CC2)c2cc(-c3cccc(CN(C(=O)c4cccc(F)c4)C4CC4)c3)ccc2n1 [Example 509, N-cyclopropyl-N-(3-(4-(cyclopropylamino)-2-methylquinazolin-6-yl)benzyl)-3-fluorobenzamide]
24 | 47 | O=C(O)CCC(=O)NCc1cccc(-c2ccc3ncnc(NCC(=O)O)c3c2)c1 [Example 330, 4-(3-(4-(carboxymethylamino)quinazolin-6-yl)benzylamino)-4-oxobutyric acid]
25 | 73 | O=C(c1ccccc1)N(Cc1cc(-c2ccc3ncnc(NC4CC4)c3c2)ccn1)C1CC1 [Example 813, N-cyclopropyl-N-((4-(4-(cyclopropylamino)quinazolin-6-yl)pyridin-2-yl)methyl)benzamide]
26 | 59 | Cc1nc(NC2CC2)c2cc(-c3cccc(CN(C(=O)c4ccc(F)cc4F)C4CC4)c3)ccc2n1 [Example 517, N-cyclopropyl-N-(3-(4-(cyclopropylamino)-2-methylquinazolin-6-yl)benzyl)-2,4-difluorobenzamide]
27 | 85 | Cc1ccc(C(=O)N(C)Cc2cccc(-c3ccc4ncnc(NC5CC5)c4c3)c2)cc1 [Example 175, N-[3-(4-cyclopropylamino-quinazolin-6-yl)-benzyl]-4,N-dimethyl-benzamide]
